Assay results as given in patent US6294568A, “5-arylpyrrole derivatives” (priority 1997, dated 2001).

What was measured:
[1] = system: carrageenan footedema; assay: Carrageenan Footedema Suppression Test; type: in vivo, SD rats; conditions: oral; paw volume three hours after carrageenan administration
Procedure: The carrageenin footedema suppression test was conducted according to the method of Winter et al. (J. Pharm. Exp. Ther., Vol.141, 369 (1963)). The test samples suspended in Tween 80 were administered orally to SD rats (6 rats per 1 group) in an amount of 1 ml per 100 g of the body weight, while only the solvent was administered in the same manner as above as a control. One hour after the administration, 1% carrageenan physiological saline was injected subcutaneously to the rats in the plantar area of the right hind paw. Three hours after the carrageenan administration, the paw volumes were measured and the edematization rate (%) was calculated with Formula 1 and then edematization suppression rate (%) was calculated with Formula 2.
Edematization rate (%)=((paw volume after carrageenan injection- paw volume before carrageenan injection)/(paw volume before carrageenan injection)×100 Formula: 1
Edematization suppression rate (%)=((edematization rate of control-
edematization rate of test samples)/edematization rate of […]

[2] = biological target: T1, Human COX-1 (Homo sapiens, UniProt P23219); assay: Human COX-1 Inhibitory Activity Test (TXB2 in blood); type: cell-based; conditions: IC50 from Hill Plot
T1 construct: endogenous in cells; host or cells: whole blood of a healthy human donor (own knowledge: TXB2 of clotting blood comes from platelet COX-1)
T1 sequence (P23219 24-599): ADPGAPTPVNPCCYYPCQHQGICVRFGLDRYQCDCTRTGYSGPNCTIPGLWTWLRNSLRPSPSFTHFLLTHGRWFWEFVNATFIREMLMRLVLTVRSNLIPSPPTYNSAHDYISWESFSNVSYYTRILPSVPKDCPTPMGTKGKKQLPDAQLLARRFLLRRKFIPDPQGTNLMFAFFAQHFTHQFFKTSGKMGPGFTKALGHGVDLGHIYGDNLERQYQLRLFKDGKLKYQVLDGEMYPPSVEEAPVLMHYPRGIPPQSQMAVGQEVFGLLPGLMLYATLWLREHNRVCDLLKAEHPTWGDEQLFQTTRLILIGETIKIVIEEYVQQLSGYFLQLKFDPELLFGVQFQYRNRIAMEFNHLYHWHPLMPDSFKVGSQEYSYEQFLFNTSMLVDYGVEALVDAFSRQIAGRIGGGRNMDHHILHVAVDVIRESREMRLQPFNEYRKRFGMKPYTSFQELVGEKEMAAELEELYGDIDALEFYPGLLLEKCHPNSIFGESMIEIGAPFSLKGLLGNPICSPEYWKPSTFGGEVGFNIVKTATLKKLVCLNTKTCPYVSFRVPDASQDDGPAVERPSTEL
Procedure: (§1) COX-1 and COX-2 activities were measured according to the method of Patrignani et al. (J. Pharm. Exp. Ther. Vol. 271, 1705 (1994)).
(1) COX-1 activity was measured in the following procedure. […] The serum obtained by 10 minutes of centrifugation at 2000 rpm at 4° C. was stored at -40° C. until the measurement of the amount of thromboxane B2 (TXB2). The test samples, which had been dissolved in ethanol and diluted to the specified concentrations, were previously dispensed into the glass test tubes, and the solvent was evaporated to dryness by Centrifugal Vaporizer (CVE-200D, manufactured by Tokyo Rika Mfg. Co., Ltd.) so that the test samples were added to the plasma.
(3) The measurement for the TXB2 content was conducted in the following procedure. In a part of a 96 well plate coated with anti-rabbit IgG antibody, 2 wells were allotted respectively to blank well, Non-specific Binding (NSB) well, Maximum Binding (B0) well, standard wells at 7 concentrations of TXB2 (1000 pg/ml) in doubling dilution ranging from 1000-15.6 pg/ml. The rest of the wells were used for the measurement of the samples. EIA buffer was added to the NSB wells (100 μl ) and B0 wells (50 μl), respectively. 50 μl of each of the standard dilution was added in an order from thinner to thicker concentrations. Each of the samples was added to the rest of the wells in an amount of 50 μl. Then, 50 μl of TXB2 tracer was added to each of the wells except for the blank wells. Further, 50 μl of TXB2 antibody was added to each of the wells except for the NSB wells and blank wells, then the well plate was covered with a plastic film and the reaction continued for 18 hours at room temperature. When the reaction was terminated, the wells were washed 5 times with a wash buffer. 200 μl of Elman's reagent was added to each of the wells and then the well plate was covered with a plastic film and developed for 60 minutes in a dark place. The absorbance at 405 nm was measured by an Immuno Reader (NJ-2000, manufactured by Nippon Intermed Co., Ltd.). From the measurement result, %B/B0 was calculated and, applying it to the approximation formula of Hill Plot, the concentration of the samples was determined to be 2,000 times concentration. […]

[3] = biological target: T2, Human COX-2 (Homo sapiens, UniProt P35354); assay: Human COX-2 Inhibitory Activity Test (LPS-induced PGE2 in blood); type: cell-based; conditions: for IC50: human blood, LPS, PGE2, IC50 from Hill Plot; for COX-1/COX-2: ratio of IC50 COX-1 to COX-2
T2 construct: endogenous in cells; host or cells: heparinised whole blood of a healthy human donor pretreated with aspirin, stimulated with LPS (own knowledge: COX-2 is induced in monocytes)
T2 sequence (P35354 18-604): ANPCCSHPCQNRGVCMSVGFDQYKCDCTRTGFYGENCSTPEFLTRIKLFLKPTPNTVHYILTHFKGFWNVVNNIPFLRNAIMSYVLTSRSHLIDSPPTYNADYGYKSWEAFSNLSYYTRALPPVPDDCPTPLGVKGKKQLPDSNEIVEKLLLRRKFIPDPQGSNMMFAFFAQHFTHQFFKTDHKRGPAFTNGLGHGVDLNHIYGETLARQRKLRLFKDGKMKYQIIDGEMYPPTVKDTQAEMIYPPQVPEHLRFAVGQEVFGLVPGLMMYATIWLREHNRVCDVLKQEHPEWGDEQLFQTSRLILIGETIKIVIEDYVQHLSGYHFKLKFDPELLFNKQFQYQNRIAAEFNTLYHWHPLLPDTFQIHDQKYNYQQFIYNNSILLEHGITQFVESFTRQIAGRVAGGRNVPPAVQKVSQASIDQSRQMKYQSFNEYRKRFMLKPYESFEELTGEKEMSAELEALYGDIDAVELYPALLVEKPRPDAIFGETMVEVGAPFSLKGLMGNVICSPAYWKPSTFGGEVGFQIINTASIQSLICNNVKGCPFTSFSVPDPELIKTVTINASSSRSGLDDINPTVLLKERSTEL
Procedure: as §1
(2) COX-2 activity was measured in the following procedure. To blood collected from a healthy normal who had taken 330 mg of aspirin 48 hours before the blood collection in order to inhibit the COX-1 activity, 10 unit/ml of sodium heparin was added, and then pipetted into glass test tubes by 1 ml. 10 μg/ml of Lipopolysaccharide (LPS) was added thereto and the plasma obtained by the specified operation was stored at -40° C. until the measurement for the amount of prostaglandin E2 (PGE2). Test samples containing the test samples were treated in the same manner of operation as described above.
(4) The measurement for the PGE2 content was conducted in the following procedure. In a part of 96 well plate coated with goat anti-mouse antibody, 2 wells were alloted respectively to a blank well, Non-specific Binding (NSB) well, Maximum Binding (B0) well, standard wells at seven concentrations of PGE2 (1000 pg/ml) in doubling dilution ranging from 1000-15.6 pg/ml. The rest of the wells were used for the sample measurement. EIA buffer was added to the NSB wells (100 μl) and to the B0 wells (50 μl), respectively. 50 μl of each of the standard dilution was added in an order from thinner to thicker concentrations. Each of the samples was added to the rest of the wells in an amount of 50 μl. Then, 50 μl of PGE2 tracer was added to each of the wells except for blank wells. Further, 50 μl PGE2 monoclonal antibody was added to each of the wells except for the NSB wells and blank wells, then the well plate was covered with a plastic film and the reaction continued at room temperature for 18 hours. When the reaction was terminated, the wells were washed 5 times with a wash buffer. 200 μl of Elman's reagent was added to each of the wells, and then the well plate was covered with a plastic film and developed for 60 minutes in a dark place. The absorbance at 405 nm was measured by an Immuno Reader (NJ-2000, manufactured by Nippon Intermed Co., Ltd.). From the measurement result, %B/B0 was calculated and, applying it to the approximation formula of Hill Plot, the concentration of the samples was determined to be 40 times concentration. The dilution was conducted with an EIA buffer throughout the Test Example 3.

COc1ccc(-c2cc(C)[nH]c2-c2ccc(OC)cc2)cc1 [Control compound (a), 4,5-bis(4-methoxyphenyl)-2-methyl-1H-pyrrole, reference compound]
Edematization Suppression rate [1]: 23.4%
IC50 [2]: 0.001 µM
IC50 [3]: 4.82 µM
COX-1/COX-2 [3]: < 0.1

Cc1cc(-c2cccc(Cl)c2)c(-c2ccc(S(C)(=O)=O)cc2)[nH]1 [Preparation Example 4, 4-(3-chlorophenyl)-2-methyl-5-(4-methylsulfonylphenyl)-1H-pyrrole]
Edematization Suppression rate [1]: 30.1%
IC50 [2]: > 100 µM
IC50 [3]: 0.164 µM
COX-1/COX-2 [3]: > 610

Cc1cc(-c2ccc(F)cc2F)c(-c2ccc(S(C)(=O)=O)cc2)[nH]1 [Preparation Example 7, 4-(2,4-difluorophenyl)-2-methyl-5-(4-methylsulfonylphenyl)-1H-pyrrole]
Edematization Suppression rate [1]: 34.5%
IC50 [2]: 30.6 µM
IC50 [3]: 0.144 µM
COX-1/COX-2 [3]: 212

Cc1cc(-c2ccc(F)c(F)c2)c(-c2ccc(S(C)(=O)=O)cc2)[nH]1 [Preparation Example 8, 4-(3,4-difluorophenyl)-2-methyl-5-(4-methylsulfonylphenyl)-1H-pyrrole]
Edematization Suppression rate [1]: 26.7%
IC50 [2]: 26.7 µM
IC50 [3]: 0.219 µM
COX-1/COX-2 [3]: > 457

Cc1cc(-c2ccc(F)c(Cl)c2)c(-c2ccc(S(C)(=O)=O)cc2)[nH]1 [Preparation Example 10, 4-(3-chloro-4-fluorophenyl)-2-methyl-5-(4-methylsulfonylphenyl)-1H-pyrrole]
Edematization Suppression rate [1]: 25.7%
IC50 [2]: 84 µM
IC50 [3]: 0.274 µM
COX-1/COX-2 [3]: 307

CCc1cc(-c2ccc(F)cc2)c(-c2ccc(S(C)(=O)=O)cc2)[nH]1 [Preparation Example 11, 2-ethyl-4-(4-fluorophenyl)-5-(4-methylsulfonylphenyl)-1H-pyrrole]
IC50 [2]: 9.9 µM
IC50 [3]: 0.084 µM
COX-1/COX-2 [3]: 118

CSc1ccc(-c2cc(C)[nH]c2-c2ccc(S(C)(=O)=O)cc2)cc1 [Preparation Example 18, 4-(4-methylthiophenyl)-2-methyl-5-(4-methylsulfonylphenyl)-1H-pyrrole]
Edematization Suppression rate [1]: 48.9%
IC50 [2]: 12.6 µM
IC50 [3]: 0.123 µM
COX-1/COX-2 [3]: 102

Cc1cc(-c2ccc(N(C)C)cc2)c(-c2ccc(S(C)(=O)=O)cc2)[nH]1 [Preparation Example 19, 4-(4-dimethylaminophenyl)-2-methyl-5-(4-methylsulfonylphenyl)-1H-pyrrole]
Edematization Suppression rate [1]: 43.2%
IC50 [3]: 0.747 µM
COX-1/COX-2 [3]: > 134

Cc1cccc(-c2cc(C)[nH]c2-c2ccc(S(C)(=O)=O)cc2)c1 [Preparation Example 21, 4-(3-methylphenyl)-2-methyl-5-(4-methylsulfonylphenyl)-1H-pyrrole]
Edematization Suppression rate [1]: 31.6%
IC50 [2]: 39.2 µM
IC50 [3]: 0.129 µM
COX-1/COX-2 [3]: 304

Cc1cc(-c2cccc(N(C)C)c2)c(-c2ccc(S(C)(=O)=O)cc2)[nH]1 [Preparation Example 23, 4-(3-dimethylaminophenyl)-2-methyl-5-(4-methylsulfonylphenyl)-1H-pyrrole]
IC50 [3]: 0.346 µM
COX-1/COX-2 [3]: > 289

COc1ccc(-c2cc(C)[nH]c2-c2ccc(S(C)(=O)=O)cc2)cc1Cl [Preparation Example 28, 4-(3-chloro-4-methoxyphenyl)-2-methyl-5-(4-methylsulfonylphenyl)-1H-pyrrole]
IC50 [3]: 0.31 µM
COX-1/COX-2 [3]: > 323

Cc1cc(-c2ccc(N(C)C)c(C)c2)c(-c2ccc(S(C)(=O)=O)cc2)[nH]1 [Preparation Example 32, 4-(4-N,N-dimethylamino-3-methylphenyl)-2-methyl-5-(4-methylsulfonylphenyl)-1H-pyrrole]
IC50 [3]: 0.442 µM
COX-1/COX-2 [3]: > 226

Cc1cc(C#Cc2ccccc2)c(-c2ccc(S(C)(=O)=O)cc2)[nH]1 [Preparation Example 48, 4-phenylethynyl-2-methyl-5-(4-methylsulfonylphenyl)-1H-pyrrole]
Edematization Suppression rate [1]: 40.1%
IC50 [3]: 0.3 µM
COX-1/COX-2 [3]: > 339

CS(=O)(=O)c1ccc(-c2[nH]c(CCC(=O)O)cc2-c2ccc(F)cc2)cc1 [Preparation Example 50, 4-(4-fluorophenyl)-5-(4-methylsulfonylphenyl)-1H-pyrrole-2-propionic acid]
Edematization Suppression rate [1]: 28.9%
IC50 [3]: 0.454 µM
COX-1/COX-2 [3]: > 220

Cc1cc(-c2ccc(F)c(F)c2F)c(-c2ccc(S(C)(=O)=O)cc2)[nH]1 [Preparation Example 52, 4-(2,3,4-trifluorophenyl)-2-methyl-5-(4-methylsulfonylphenyl)-1H-pyrrole]
IC50 [2]: 50.4 µM
IC50 [3]: 0.11 µM
COX-1/COX-2 [3]: 458

Cc1cc(F)cc(-c2cc(C)[nH]c2-c2ccc(S(C)(=O)=O)cc2)c1 [Preparation Example 53, 4-(3-fluoro-5-methylphenyl)-2-methyl-5-(4-methylsulfonylphenyl)-1H-pyrrole]
IC50 [3]: 0.162 µM
COX-1/COX-2 [3]: 617
